In assay [1] the target is T1, purple membrane (PM) (Halobacterium salinarum, UniProt P02945).
T1 construct: The culture of Halobacterium halobium and PM isolation were carried out following a standard procedure; endogenous in cells; host or cells: Halobacterium halobium culture; purple membrane isolated by the standard procedure (Oesterhelt & Stoeckenius)
T1 sequence (P02945 14-261 limits assumed): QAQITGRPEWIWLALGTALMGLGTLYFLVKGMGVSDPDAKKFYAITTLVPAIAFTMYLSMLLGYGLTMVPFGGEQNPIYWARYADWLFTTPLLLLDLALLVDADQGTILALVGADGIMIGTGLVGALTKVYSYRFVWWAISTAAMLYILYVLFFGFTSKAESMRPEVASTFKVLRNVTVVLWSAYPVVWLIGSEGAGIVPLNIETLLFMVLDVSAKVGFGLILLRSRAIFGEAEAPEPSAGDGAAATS
In words: SPR binding of peptide to PM (KxV5-type SPR, Langmuir adsorption model). As to conditions: PM patches as mobile phase. (In SPR one partner is held on a chip, and binding of the other changes the refractive index at the surface.)
Description: Binding affinity of peptide with PM was tested by using surface plasmon resonance (SPR), which can provide real-time monitoring of biomolecular interactions [46, 47]. The binding constant between PM and the peptide was calculated based on Langmuir adsorption, in which the following equation is applicable. (4) 1/R=1/(RmaxKACA)+1/Rmax Rmax is the maximum coverage, KA is the equilibrium adsorption constant, and CA is the concentration of adsorbate solution [48].
The culture of Halobacterium halobium and PM isolation were carried out following a standard procedure [49]. Purified PM was suspended in double-distilled water and stored at 4 °C. The buffer used in the experiments consisted of 10 mM Tris HCl with a pH value of 8.0.
The characterization of the peptides-PM binding interaction was accomplished with the surface plasmon resonance technique (KxV5-type SPR, Plexera, Woodinville, WA, USA). […] The peptides were introduced to the surface of the gold chip in advance as stationary phase. SPR chip was modified by thiol molecules containing carboxyl to form self-assembled layer. 5 mL of carboxyl thiols (dithiosole-COOH, 1 μM) and hydroxy-dithiol molecule (dithiosole-OH, 10 μM) mixing ethanol solution was dropped on a SPR chip surface, and then the remaining liquid was removed by suction after 15 min of adsorption. After rinsing with ethanol, the carboxyl-terminated SAM on the chip surface underwent EDC/NHS activation. PM patches were introduced as a mobile phase. Based on the Langmuir adsorption model, the kinetic parameters and the binding constant were calculated using Plexera software.

The target in assay [2] is T1, purple membrane (PM). In words: Directional PM assembly on Peptide-3 modified silicon, AFM and surface potential. Conditions: side attributed from surface potential; PM adsorbed on peptide modified silicon (EDC/NHS). Here is the method:
The peptide was modified on silicon substrates via 1-ethyl-3-(3-(dimethylamino)propyl) carbodiimide (EDC)/N-hydroxysuccinimide(NHS) coupling for an oriented PM assembly. The silicon surface is treated with oxygen plasma first for hydroxyl group generation and then followed by (3-aminopropyl)triethoxysilane (APTES) modification for an amino-terminated surface. Then, introduction of succine anhydride leads to a carboxyl-terminated self-assembled monolayer (SAM) on the silicon surface, followed by EDC/NHS activation to immobilized peptides onto the silicon surface. […] This observation is consistent with the SPR measurements on the binding affinity of peptide with PM. The surface potential analyses of PM patches on silicon substrate are labeled by lines in EFM-potential images and their sectional analyses were done. […]
The topographic and surface potential images were obtained using a Bruker Dimension Icon microscope in a two-pass operation mode slightly different from the EFM measurement mentioned above. […] The deflection amplitude of the probe in lift mode was monitored, which was linearly proportional to the electrical force imposed on the probe. […]

No end group written: not given here.

The Kd is the equilibrium constant for the complex coming apart. Take GARGIMIGTGLVGALTDVYSYDF: on purple membrane (PM) [1] (peptide immobilised on gold chip (carboxyl-terminated SAM, EDC/NHS), Plexera software, buffer used in the experiments 10 mM Tris HCl pH 8.0, read-out: adsorption rate constant ka), the kon worked out at 283 M⁻¹ s⁻¹. Besides, the koff at purple membrane (PM) [1] (peptide immobilised on gold chip (carboxyl-terminated SAM, EDC/NHS), Plexera software, buffer used in the experiments 10 mM Tris HCl pH 8.0, read-out: dissociation rate constant kd) is 0.00238 s⁻¹. Further, on purple membrane (PM) [1] (peptide immobilised on gold chip, buffer used in the experiments 10 mM Tris HCl pH 8.0, unit inferred, read-out: equilibrium dissociation constant KD), the Kd worked out at 8.43 µM. The “orientation of PM on peptide-modified silicon” value at purple membrane (PM) [2] is “identical orientation of the PM on surface”.

The values are drawn from publication PMC5245739, “Nanoscale Electric Characteristics and Oriented Assembly of Halobacterium salinarum Membrane Revealed by Electric Force Microscopy” (Nanomaterials, 2016).
